From PubChem BioAssay AID1963451 (Molecular Pharmacology Branch, DTP, NCI, 2024)

Tested on: 521955-158-R6-J3-PDC complex spheroid growth, % test/control
Experiment: Anticancer human tumor 521955-158-R6-J3-PDC patient-derived pancreatic carcinoma cell line growth inhibition [Asc]
Settings: for IC50: curve of first compound; for viability, T/C: stronger effect = lower value; active means viability on the fitted dose curve at most 10% of control; inactive means the rest
Outline: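 Complex spheroids combining tumor cells with HUVEC endothelial cells and human MSCs, at 37 degrees C, 5% CO2; agents tested alone or combined, half-log dilutions from at or near clinical Cmax, or 10 microM if Cmax unknown.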
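Further: spheroids exposed to compounds for 7 days.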
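Wherever viability, T/C is given: 100% = DMSO vehicle control wells.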

NC(=O)C(=Cn1cnc(-c2cc(C(F)(F)F)cc(C(F)(F)F)c2)n1)c1cncnc1 + Cc1c(S(C)(=O)=O)c(-c2cc(F)cc(N3CCN(c4ccc(NS(=O)(=O)c5ccc(NC(CCN6CCC(C(=O)OCCCP(=O)(O)O)CC6)CSc6ccccc6)c(S(=O)(=O)C(F)(F)F)c5)cc4)CC3)c2)c(-c2ccc(Cl)cc2)n1C(C)C
inactive: viability, T/C (second compound 0.0316 µM, first compound 0.000949 µM) 95% | viability, T/C (second compound 0.0316 µM, first compound 0.003 µM) 97.1% | viability, T/C (second compound 0.0316 µM, first compound 0.00949 µM) 60.6% | viability, T/C (second compound 0.0316 µM, first compound 0.03 µM) 82.1% | viability, T/C (second compound 0.0316 µM, first compound 0.0949 µM) 103% | viability, T/C (second compound 0.0316 µM, first compound 0.3 µM) 108% | viability, T/C (second compound 0.1 µM, first compound 0.000949 µM) 84% | viability, T/C (second compound 0.1 µM, first compound 0.003 µM) 90.4% | viability, T/C (second compound 0.1 µM, first compound 0.00949 µM) 70.9% | viability, T/C (second compound 0.1 µM, first compound 0.03 µM) 62.1% | viability, T/C (second compound 0.1 µM, first compound 0.0949 µM) 89.3% | viability, T/C (second compound 0.1 µM, first compound 0.3 µM) 85.9% | viability, T/C (second compound 0.316 µM, first compound 0.000949 µM) 70.3% | viability, T/C (second compound 0.316 µM, first compound 0.003 µM) 49% | viability, T/C (second compound 0.316 µM, first compound 0.00949 µM) 47.2% | viability, T/C (second compound 0.316 µM, first compound 0.03 µM) 47.5% | viability, T/C (second compound 0.316 µM, first compound 0.0949 µM) 69.6% | viability, T/C (second compound 0.316 µM, first compound 0.3 µM) 43.5% | viability, T/C (second compound 1 µM, first compound 0.000949 µM) 47.1% | viability, T/C (second compound 1 µM, first compound 0.003 µM) 30.3% | viability, T/C (second compound 1 µM, first compound 0.00949 µM) 34.6% | viability, T/C (second compound 1 µM, first compound 0.03 µM) 33% | viability, T/C (second compound 1 µM, first compound 0.0949 µM) 43.8% | viability, T/C (second compound 1 µM, first compound 0.3 µM) 18.4% | viability, T/C (second compound 3.16 µM, first compound 0.000949 µM) 19.8% | viability, T/C (second compound 3.16 µM, first compound 0.003 µM) 21.9% | viability, T/C (second compound 3.16 µM, first compound 0.00949 µM) 22.6% | viability, T/C (second compound 3.16 µM, first compound 0.03 µM) 20.9% | viability, T/C (second compound 3.16 µM, first compound 0.0949 µM) 16.2% | viability, T/C (second compound 3.16 µM, first compound 0.3 µM) 5.69% | viability, T/C (second compound 10 µM, first compound 0.000949 µM) 12.2% | viability, T/C (second compound 10 µM, first compound 0.003 µM) 16.9% | viability, T/C (second compound 10 µM, first compound 0.00949 µM) 11.6%
active: viability, T/C (second compound 10 µM, first compound 0.03 µM) 10.2% | viability, T/C (second compound 10 µM, first compound 0.0949 µM) 9.2% | viability, T/C (second compound 10 µM, first compound 0.3 µM) 0.76%
> 300 nM: IC50 (second compound 0.0316 µM) | IC50 (second compound 0.1 µM) | IC50 (second compound 0.316 µM)
< 0.949 nM: IC50 (second compound 1 µM) | IC50 (second compound 3.16 µM) | IC50 (second compound 10 µM)

CCN1CCN(Cc2ccc(Nc3ncc(F)c(-c4cc(F)c5nc(C)n(C(C)C)c5c4)n3)nc2)CC1 + CNC(C)C(=O)NC1CN(S(=O)(=O)c2cccc(S(=O)(=O)N3CCC4CCC(C(=O)NC(c5ccccc5)c5ccccc5)N4C(=O)C(NC(=O)C(C)NC)C3)c2)CCC2CCC(C(=O)NC(c3ccccc3)c3ccccc3)N2C1=O
inactive: viability, T/C (second compound 0.00316 µM, first compound 0.00316 µM) 174% | viability, T/C (second compound 0.00316 µM, first compound 0.01 µM) 141% | viability, T/C (second compound 0.00316 µM, first compound 0.0316 µM) 140% | viability, T/C (second compound 0.00316 µM, first compound 0.1 µM) 153% | viability, T/C (second compound 0.00316 µM, first compound 0.316 µM) 136% | viability, T/C (second compound 0.00316 µM, first compound 1 µM) 120% | viability, T/C (second compound 0.01 µM, first compound 0.00316 µM) 94.2% | viability, T/C (second compound 0.01 µM, first compound 0.01 µM) 76.4% | viability, T/C (second compound 0.01 µM, first compound 0.0316 µM) 86.1% | viability, T/C (second compound 0.01 µM, first compound 0.1 µM) 75.9% | viability, T/C (second compound 0.01 µM, first compound 0.316 µM) 74.9% | viability, T/C (second compound 0.01 µM, first compound 1 µM) 86.4% | viability, T/C (second compound 0.0316 µM, first compound 0.00316 µM) 103% | viability, T/C (second compound 0.0316 µM, first compound 0.01 µM) 82.1% | viability, T/C (second compound 0.0316 µM, first compound 0.0316 µM) 73.6% | viability, T/C (second compound 0.0316 µM, first compound 0.1 µM) 83.4% | viability, T/C (second compound 0.0316 µM, first compound 0.316 µM) 83.6% | viability, T/C (second compound 0.0316 µM, first compound 1 µM) 92.1% | viability, T/C (second compound 0.1 µM, first compound 0.00316 µM) 107% | viability, T/C (second compound 0.1 µM, first compound 0.01 µM) 114% | viability, T/C (second compound 0.1 µM, first compound 0.0316 µM) 102% | viability, T/C (second compound 0.1 µM, first compound 0.1 µM) 75.9% | viability, T/C (second compound 0.1 µM, first compound 0.316 µM) 88.2% | viability, T/C (second compound 0.1 µM, first compound 1 µM) 100% | viability, T/C (second compound 0.316 µM, first compound 0.00316 µM) 87.4% | viability, T/C (second compound 0.316 µM, first compound 0.01 µM) 78.8% | viability, T/C (second compound 0.316 µM, first compound 0.0316 µM) 71% | viability, T/C (second compound 0.316 µM, first compound 0.1 µM) 66.5% | viability, T/C (second compound 0.316 µM, first compound 0.316 µM) 67.1% | viability, T/C (second compound 0.316 µM, first compound 1 µM) 71% | viability, T/C (second compound 1 µM, first compound 0.00316 µM) 86.3% | viability, T/C (second compound 1 µM, first compound 0.01 µM) 81.3% | viability, T/C (second compound 1 µM, first compound 0.0316 µM) 71.8% | viability, T/C (second compound 1 µM, first compound 0.1 µM) 72.8% | viability, T/C (second compound 1 µM, first compound 0.316 µM) 77.3% | viability, T/C (second compound 1 µM, first compound 1 µM) 83.9%
> 1000 nM: IC50 (second compound 0.00316 µM) | IC50 (second compound 0.01 µM) | IC50 (second compound 0.0316 µM) | IC50 (second compound 0.1 µM) | IC50 (second compound 0.316 µM) | IC50 (second compound 1 µM)

C=CC(=O)N1CCN(c2nc(=O)n(-c3c(C)ccnc3C(C)C)c3nc(-c4c(O)cccc4F)c(F)cc23)C(C)C1 (stereo unspecified) + CCN1C(C(=O)NC23CCC(C(=O)O)(CC2)CC3)C(c2cccc(Cl)c2F)C2(C(=O)Nc3cc(Cl)ccc32)C12CCCCC2
inactive: viability, T/C (second compound 0.00949 µM, first compound 0.0316 µM) 121% | viability, T/C (second compound 0.00949 µM, first compound 0.1 µM) 111% | viability, T/C (second compound 0.00949 µM, first compound 0.316 µM) 107% | viability, T/C (second compound 0.00949 µM, first compound 1 µM) 106% | viability, T/C (second compound 0.00949 µM, first compound 3.16 µM) 114% | viability, T/C (second compound 0.00949 µM, first compound 10 µM) 109% | viability, T/C (second compound 0.03 µM, first compound 0.0316 µM) 94.3% | viability, T/C (second compound 0.03 µM, first compound 0.1 µM) 113% | viability, T/C (second compound 0.03 µM, first compound 0.316 µM) 103% | viability, T/C (second compound 0.03 µM, first compound 1 µM) 114% | viability, T/C (second compound 0.03 µM, first compound 3.16 µM) 101% | viability, T/C (second compound 0.03 µM, first compound 10 µM) 95.7% | viability, T/C (second compound 0.0949 µM, first compound 0.0316 µM) 119% | viability, T/C (second compound 0.0949 µM, first compound 0.1 µM) 91.2% | viability, T/C (second compound 0.0949 µM, first compound 0.316 µM) 118% | viability, T/C (second compound 0.0949 µM, first compound 1 µM) 103% | viability, T/C (second compound 0.0949 µM, first compound 3.16 µM) 108% | viability, T/C (second compound 0.0949 µM, first compound 10 µM) 101% | viability, T/C (second compound 0.3 µM, first compound 0.0316 µM) 101% | viability, T/C (second compound 0.3 µM, first compound 0.1 µM) 115% | viability, T/C (second compound 0.3 µM, first compound 0.316 µM) 107% | viability, T/C (second compound 0.3 µM, first compound 1 µM) 112% | viability, T/C (second compound 0.3 µM, first compound 3.16 µM) 109% | viability, T/C (second compound 0.3 µM, first compound 10 µM) 103% | viability, T/C (second compound 0.949 µM, first compound 0.0316 µM) 108% | viability, T/C (second compound 0.949 µM, first compound 0.1 µM) 105% | viability, T/C (second compound 0.949 µM, first compound 0.316 µM) 102% | viability, T/C (second compound 0.949 µM, first compound 1 µM) 107% | viability, T/C (second compound 0.949 µM, first compound 3.16 µM) 121% | viability, T/C (second compound 0.949 µM, first compound 10 µM) 92.2% | viability, T/C (second compound 3 µM, first compound 0.0316 µM) 91.8% | viability, T/C (second compound 3 µM, first compound 0.1 µM) 95.8% | viability, T/C (second compound 3 µM, first compound 0.316 µM) 97.7% | viability, T/C (second compound 3 µM, first compound 1 µM) 92.5% | viability, T/C (second compound 3 µM, first compound 3.16 µM) 102% | viability, T/C (second compound 3 µM, first compound 10 µM) 94.3%
> 10000 nM: IC50 (second compound 0.00949 µM) | IC50 (second compound 0.03 µM) | IC50 (second compound 0.0949 µM) | IC50 (second compound 0.3 µM) | IC50 (second compound 0.949 µM) | IC50 (second compound 3 µM)
